The assay addresses T1, human GLP-1 receptor (Homo sapiens, UniProt P43220).
T1 construct: expressed in transfected cells
Kind of assay: GLP-1R cAMP Assay (HitHunter cAMP accumulation). The class given is cell-based. The settings on record: CHO cells stably overexpressing human GLP-1 receptor, 30 min treatment. The gist of the method: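 CHO cells stably expressing human GLP-1R, 10,000 cells/well in HBSS with 10 mM HEPES and 625 μM IBMX, were mixed with anti-cAMP antibody reagent. Compound was applied as a 20-point dose response in triplicate for 30 min. After lysis and overnight detection, luminescence was read and dose-response curves analysed.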
Background: Changes in cAMP serve as a functional read-out for many G protein-coupled receptors.

The mark [1] stands for this setting: cAMP accumulation, read-out: EC50.

The EC50 is the concentration needed to bring the measured effect to its halfway point.

Where two headings read alike, the source gives them in different places. Where only a bound is given, the exact number is not on record here.

T1 sequence (P43220 24-463): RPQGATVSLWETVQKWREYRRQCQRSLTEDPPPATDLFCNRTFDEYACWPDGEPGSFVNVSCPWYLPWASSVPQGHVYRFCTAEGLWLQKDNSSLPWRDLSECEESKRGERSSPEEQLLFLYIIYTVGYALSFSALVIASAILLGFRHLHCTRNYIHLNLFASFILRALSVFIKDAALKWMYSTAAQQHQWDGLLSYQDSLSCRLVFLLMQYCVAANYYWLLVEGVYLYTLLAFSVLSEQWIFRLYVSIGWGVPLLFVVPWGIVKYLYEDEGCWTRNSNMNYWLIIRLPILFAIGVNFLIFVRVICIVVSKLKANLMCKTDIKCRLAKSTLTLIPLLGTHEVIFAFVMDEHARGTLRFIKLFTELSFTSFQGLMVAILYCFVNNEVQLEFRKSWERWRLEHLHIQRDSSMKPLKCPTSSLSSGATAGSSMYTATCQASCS

As to `N#Cc1ccc(OCc2cccc([C@@H]3CCN(Cc4nc5c(F)cc(C(=O)O)cc5n4C[C@@H]4CCO4)C3)c2)c(F)c1` [Compound 445, 2-{[(3S)-3-{3-[(4-cyano-2-fluorophenoxy)methyl]phenyl}pyrrolidin-1-yl]methyl}-4-fluoro-1-{[(2S)-oxetan-2-yl]methyl}-1H-1,3-benzodiazole-6-carboxylic acid], under setting [1], the EC50 was less than 50 nM.

As for `N#Cc1ccc(OCc2cc(Oc3ccc(Cc4nc5c(F)cc(C(=O)O)cc5n4C[C@@H]4CCO4)c(F)c3)ccn2)c(F)c1` [Compound 537, 2-{[4-({2-[(4-cyano-2-fluorophenoxy)methyl]pyridin-4-yl}oxy)-2-fluorophenyl]methyl}-4-fluoro-1-{[(2S)-oxetan-2-yl]methyl}-1H-1,3-benzodiazole-6-carboxylic acid], under setting [1], the EC50 is less than 50 nM.

As for `O=C(O)c1ccc2nc(CN3CC[C@H](c4cccc(COc5ccc(Cl)cc5F)c4)C3)n(C[C@@H]3CCO3)c2c1` (single isomer, unassigned) [Example 412], the EC50 under setting [1] was 50 to 500 nM.

With `CCn1cncc1Cn1c(CN2CC(Cc3cnc(COc4ccc(Cl)cc4Cl)o3)C2)nc2ccc(C(=O)O)cc21` [Example 147, 2-((3-((2-((2,4-Dichlorophenoxy)methyl)oxazol-5-yl)methyl)azetidin-1-yl)methyl)-1-((1-ethyl-1H-imidazol-5-yl)methyl)-1H-benzo[d]imidazole-6-carboxylic acid], the EC50 under setting [1] was less than 50 nM.

For the compound `CCn1cncc1Cn1c(CN2CC(Oc3cccc(COc4ccc(Cl)cc4C#N)c3)C2)nc2ccc(C(=O)O)cc21` [Compound 212, 2-[(3-{3-[(4-chloro-2-cyanophenoxy)methyl]phenoxy}azetidin-1-yl)methyl]-1-[(1-ethyl-1H-imidazol-5-yl)methyl]-1H-1,3-benzodiazole-6-carboxylic acid], under setting [1], the EC50 was less than 50 nM.

As to `O=C(O)c1ccc2nc(CN3CC[C@H](Oc4ccnc(COc5ccc(C(F)F)cc5F)c4)C3)n(C[C@@H]3CCO3)c2c1` [Compound 298, 2-{[(3S)-3-[(2-{[4-(difluoromethyl)-2-fluorophenoxy]methyl}pyridin-4-yl)oxy]pyrrolidin-1-yl]methyl}-1-{[(2S)-oxetan-2-yl]methyl}-1H-1,3-benzodiazole-6-carboxylic acid], the concentration for a half-maximal effect (EC50) under setting [1] is less than 50 nM.

Regarding `O=C(O)c1cc(F)c2nc(CN3CC=C(c4nc(COc5ccc(Cl)cc5F)ccc4F)C3)n(C[C@@H]3CCO3)c2c1` [Compound 437, 2-[(3-{6-[(4-chloro-2-fluorophenoxy)methyl]-3-fluoropyridin-2-yl}-2,5-dihydro-1H-pyrrol-1-yl)methyl]-4-fluoro-1-{[(2S)-oxetan-2-yl]methyl}-1H-1,3-benzodiazole-6-carboxylic acid], under setting [1], the EC50 was less than 50 nM.

Consider `N#Cc1ccc(OCc2nc([C@H]3CCN(Cc4nc5ccc(C(=O)O)cc5n4C[C@@H]4CCO4)C3)ccc2F)c(F)c1` (single isomer, unassigned) [Compound 519], for which the EC50 under setting [1] was less than 50 nM.

Consider `C[C@H]1[C@@H](Oc2ccnc(COc3ccc(C#N)cc3F)n2)CN1Cc1nc2c(F)cc(C(=O)O)cc2n1C[C@@H]1CCO1` [Compound 546, 2-{[(2S,3S)-3-({2-[(4-cyano-2-fluorophenoxy)methyl]pyrimidin-4-yl}oxy)-2-methylazetidin-1-yl]methyl}-4-fluoro-1-{[(2S)-oxetan-2-yl]methyl}-1H-1,3-benzodiazole-6-carboxylic acid], for which, under setting [1], the EC50 is less than 50 nM.

For the compound `N#Cc1ccc(OCc2ccc(F)c(C3CCN(Cc4nc5ccc(C(=O)O)cc5n4C[C@@H]4CCO4)C3)n2)c(F)c1` (stereo partly drawn) [Compound 520, 2-[(3-{6-[(4-cyano-2-fluorophenoxy)methyl]-3-fluoropyridin-2-yl}pyrrolidin-1-yl)methyl]-1-{[(2S)-oxetan-2-yl]methyl}-1H-1,3-benzodiazole-6-carboxylic acid], the EC50 under setting [1] was less than 50 nM.

Consider `O=C(O)c1cc(F)c2nc(Cc3ccc(Oc4ccnc(COc5ccc(Cl)cc5F)c4)c(F)c3)n(C[C@@H]3CCO3)c2c1` [Example 471, (S)-2-(4-((2-((4-Chloro-2-fluorophenoxy)methyl)pyridin-4-yl)oxy)-3-fluorobenzyl)-4-fluoro-1-(oxetan-2-ylmethyl)-1H-benzo[d]imidazole-6-carboxylic acid], for which, under setting [1], the EC50 was less than 50 nM.

For `O=C(O)c1cc(F)c2nc(CN3CC[C@H](Oc4ccnc(COc5ccc(Cl)cc5F)n4)C3)n(CC3CCO3)c2c1` (stereo partly drawn) [Compound 361, 2-{[(3S)-3-({2-[(4-chloro-2-fluorophenoxy)methyl]pyrimidin-4-yl}oxy)pyrrolidin-1-yl]methyl}-4-fluoro-1-[(oxetan-2-yl)methyl]-1H-1,3-benzodiazole-6-carboxylic acid], the EC50 (EC50, cAMP accumulation) was less than 50 nM.

On to `CCn1cncc1Cn1c(CN2CC(=Cc3ccnc(COc4ccc(Cl)cc4Cl)c3)C2)nc2ccc(C(=O)O)cc21` [Compound 175, 2-{[3-({2-[(2,4-dichlorophenoxy)methyl]pyridin-4-yl}methylidene)azetidin-1-yl]methyl}-1-[(1-ethyl-1H-imidazol-5-yl)methyl]-1H-1,3-benzodiazole-6-carboxylic acid], for which, under setting [1], the EC50 is less than 50 nM.

For the compound `O=C(O)c1cc(F)c2nc(CN3CC[C@H](c4cccc(COc5ccc(Cl)cc5F)n4)C3)n(C[C@@H]3CCO3)c2c1` [Compound 442, 2-{[(3S)-3-{6-[(4-chloro-2-fluorophenoxy)methyl]pyridin-2-yl}pyrrolidin-1-yl]methyl}-4-fluoro-1-{[(2S)-oxetan-2-yl]methyl}-1H-1,3-benzodiazole-6-carboxylic acid], the EC50 under setting [1] is less than 50 nM.

On to `Cc1cc(Oc2ccnc(COc3ccc(C#N)cc3F)n2)ccc1Cc1nc2c(F)cc(C(=O)O)cc2n1C[C@@H]1CCO1` [Compound 540, (S)-2-(4-((2-((4-Cyano-2-fluorophenoxy)methyl)pyrimidin-4-yl)oxy)-2-methylbenzyl)-4-fluoro-1-(oxetan-2-ylmethyl)-1H-benzo[d]imidazole-6-carboxylic acid], for which the concentration giving a half-maximal response (EC50) under setting [1] is less than 50 nM.

Consider `CCn1cncc1Cn1c(CN2CCC(Cc3cccc4c3OC(C)(c3ccc(Cl)cn3)O4)CC2)nc2ccc(C(=O)O)cc21` (stereo not drawn) [Compound 184, 2-[(4-{[2-(5-chloropyridin-2-yl)-2-methyl-2H-1,3-benzodioxol-4-yl]methyl}piperidin-1-yl)methyl]-1-[(1-ethyl-1H-imidazol-5-yl)methyl]-1H-1,3-benzodiazole-6-carboxylic acid], for which the EC50 under setting [1] is less than 50 nM.

`CCn1cncc1Cn1c(CN2CC[C@@H](Oc3ccnc(COc4ccc(Cl)cc4Cl)c3)C2)nc2ccc(C(=O)O)cc21` [Compound 245, 2-{[(3R)-3-({2-[(2,4-dichlorophenoxy)methyl]pyridin-4-yl}oxy)pyrrolidin-1-yl]methyl}-1-[(1-ethyl-1H-imidazol-5-yl)methyl]-1H-1,3-benzodiazole-6-carboxylic acid]: under setting [1], the EC50 is less than 50 nM.

Turning to `O=C(O)c1ccc2nc(CN3CC(=Cc4ccnc(COc5ccc(Cl)cc5Cl)c4)C3)n(C[C@@H]3CCO3)c2c1` [Compound 190, 2-{[3-({2-[(2,4-dichlorophenoxy)methyl]pyridin-4-yl}methylidene)azetidin-1-yl]methyl}-1-{[(2S)-oxetan-2-yl]methyl}-1H-1,3-benzodiazole-6-carboxylic acid], under setting [1], the half-maximal effective concentration (EC50) was less than 50 nM.

The values are drawn from US20220396569A1 (Carmot Therapeutics, Inc., priority 2021, published 2022).
